These are literature values, as cited in patent publication US20240408173A1, “SILK FIBROIN-CONTAINING COMPOSITION AND METHODS OF USE THEREOF” (Georgetown University, priority 2017, published 2024).

Structures are written as SMILES.

Consider `FC(F)(F)C(F)(F)C(F)(F)C(F)(F)C(F)(F)C(F)(F)C(F)(F)C(F)(F)Br` [PFC, perfluorooctylbromide], for which the Water solubility result is on record as “No”.
